According to PubChem BioAssay AID1919014 (Molecular Pharmacology Branch, DTP, NCI, 2023):

Tested on: NCI-H1341 complex spheroids, percent test/control
Experiment: Anticancer human tumor NCI-H1341 cell line growth inhibition [AhR];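 note: spheroids exposed to agents for seven days before readout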
Settings: for IC50: curve of first compound; for viability, T/C: stronger effect = lower value
Summary of the method: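 Agents were dosed in half-log steps down from roughly clinical Cmax, or from 10 microM where Cmax was unknown, alone and with AhR antagonists. Read-out: percent test/control growth of tumor spheroids containing HUVEC and MSC stromal cells.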

[1] = second compound 0.1 µM, first compound 0.00949 µM
[2] = second compound 0.1 µM, first compound 0.03 µM
[3] = second compound 0.1 µM, first compound 0.0949 µM
[4] = second compound 0.1 µM, first compound 0.3 µM
[5] = second compound 0.316 µM, first compound 0.00949 µM
[6] = second compound 0.316 µM, first compound 0.03 µM
[7] = second compound 0.316 µM, first compound 0.0949 µM
[8] = second compound 0.316 µM, first compound 0.3 µM
[9] = second compound 1 µM, first compound 0.00949 µM
[10] = second compound 1 µM, first compound 0.03 µM
[11] = second compound 1 µM, first compound 0.0949 µM
[12] = second compound 1 µM, first compound 0.3 µM
[13] = second compound 3.16 µM, first compound 0.00949 µM
[14] = second compound 3.16 µM, first compound 0.03 µM
[15] = second compound 3.16 µM, first compound 0.0949 µM
[16] = second compound 3.16 µM, first compound 0.3 µM
[17] = second compound 10 µM, first compound 0.00949 µM
[18] = second compound 10 µM, first compound 0.03 µM
[19] = second compound 10 µM, first compound 0.0949 µM
[20] = second compound 10 µM, first compound 0.3 µM

Compound CC1COCCN1c1cc(C2(S(C)(=N)=O)CC2)nc(-c2ccnc3[nH]ccc23)n1 (stereo not given) + Cc1cncc(-c2nc(NCCc3c[nH]c4ccccc34)c3ncn(C(C)C)c3n2)c1 has an IC50 (second compound 0.1 µM) of 3650 nM, an IC50 (second compound 0.316 µM) of 1970 nM and an IC50 (second compound 1 µM) of 3450 nM. The IC50 (second compound 3.16 µM) was 1820 nM, the IC50 (second compound 10 µM) was < 31.6 nM and the viability, T/C (second compound 0.1 µM, first compound 0.0316 µM) was 81.4%. For the same compound, the viability, T/C (second compound 0.1 µM, first compound 0.1 µM) was 85.2%, the viability, T/C (second compound 0.1 µM, first compound 0.316 µM) was 71.1% and the viability, T/C (second compound 0.1 µM, first compound 1 µM) was 71.5%. It also gave a viability, T/C (second compound 0.1 µM, first compound 3.16 µM) of 54.6%, a viability, T/C (second compound 0.1 µM, first compound 10 µM) of 21.9% and a viability, T/C (second compound 0.316 µM, first compound 0.0316 µM) of 87.9%. For the same compound, the viability, T/C (second compound 0.316 µM, first compound 0.1 µM) was 84.1%, the viability, T/C (second compound 0.316 µM, first compound 0.316 µM) was 75.1% and the viability, T/C (second compound 0.316 µM, first compound 1 µM) was 62.1%. The viability, T/C (second compound 0.316 µM, first compound 3.16 µM) was 41.6%, the viability, T/C (second compound 0.316 µM, first compound 10 µM) was 20.6% and the viability, T/C (second compound 1 µM, first compound 0.0316 µM) was 89.9%. It also gave a viability, T/C (second compound 1 µM, first compound 0.1 µM) of 83.6%, a viability, T/C (second compound 1 µM, first compound 0.316 µM) of 70.3% and a viability, T/C (second compound 1 µM, first compound 1 µM) of 75.1%. For the same compound, the viability, T/C (second compound 1 µM, first compound 3.16 µM) was 51.7%, the viability, T/C (second compound 1 µM, first compound 10 µM) was 22.8% and the viability, T/C (second compound 3.16 µM, first compound 0.0316 µM) was 54.7%. The viability, T/C (second compound 3.16 µM, first compound 0.1 µM) was 66.3%, the viability, T/C (second compound 3.16 µM, first compound 0.316 µM) was 65.6% and the viability, T/C (second compound 3.16 µM, first compound 1 µM) was 62.9%. The viability, T/C (second compound 3.16 µM, first compound 3.16 µM) was 38.5%, the viability, T/C (second compound 3.16 µM, first compound 10 µM) was 25.6% and the viability, T/C (second compound 10 µM, first compound 0.0316 µM) was 40.5%. For the same compound, the viability, T/C (second compound 10 µM, first compound 0.1 µM) was 30.7%, the viability, T/C (second compound 10 µM, first compound 0.316 µM) was 39.2% and the viability, T/C (second compound 10 µM, first compound 1 µM) was 29.1%. It also gave a viability, T/C (second compound 10 µM, first compound 3.16 µM) of 26.3% and a viability, T/C (second compound 10 µM, first compound 10 µM) of 13.9%.
With Nc1ncn(C2CC(O)C(CO)S2)c(=O)n1 (stereo not given) + Cc1cncc(-c2nc(NCCc3c[nH]c4ccccc34)c3ncn(C(C)C)c3n2)c1 the IC50 (second compound 0.1 µM) was > 300 nM, the IC50 (second compound 0.316 µM) was 282 nM and the IC50 (second compound 1 µM) was > 300 nM. For the same compound, the IC50 (second compound 3.16 µM) was > 300 nM, the IC50 (second compound 10 µM) was < 0.949 nM and the viability, T/C (second compound 0.1 µM, first compound 0.000949 µM) was 102%. It also gave a viability, T/C (second compound 0.1 µM, first compound 0.003 µM) of 82.9%, a viability, T/C [1] of 91.5% and a viability, T/C [2] of 88.3%. The viability, T/C [3] was 67.7%, the viability, T/C [4] was 50.2% and the viability, T/C (second compound 0.316 µM, first compound 0.000949 µM) was 84.9%. For the same compound, the viability, T/C (second compound 0.316 µM, first compound 0.003 µM) was 89.5%, the viability, T/C [5] was 79.6% and the viability, T/C [6] was 73.8%. The viability, T/C [7] was 71.8%, the viability, T/C [8] was 47.8% and the viability, T/C (second compound 1 µM, first compound 0.000949 µM) was 69.8%. It also gave a viability, T/C (second compound 1 µM, first compound 0.003 µM) of 87.3%, a viability, T/C [9] of 80.7% and a viability, T/C [10] of 77.2%. The viability, T/C [11] was 67.5%, the viability, T/C [12] was 58% and the viability, T/C (second compound 3.16 µM, first compound 0.000949 µM) was 93.7%. It also gave a viability, T/C (second compound 3.16 µM, first compound 0.003 µM) of 97.9%, a viability, T/C [13] of 86.9% and a viability, T/C [14] of 84.7%. It also gave a viability, T/C [15] of 82.3%, a viability, T/C [16] of 63.8% and a viability, T/C (second compound 10 µM, first compound 0.000949 µM) of 45%. It also gave a viability, T/C (second compound 10 µM, first compound 0.003 µM) of 44.2%, a viability, T/C [17] of 42.1% and a viability, T/C [18] of 35.8%. The viability, T/C [19] was 33.1% and the viability, T/C [20] was 26%.
O=C(C=Cn1cnc(-c2cc(C(F)(F)F)cc(C(F)(F)F)c2)n1)NNc1cnccn1 + Cc1cncc(-c2nc(NCCc3c[nH]c4ccccc34)c3ncn(C(C)C)c3n2)c1 showed an IC50 (second compound 0.1 µM) of 98.1 nM, an IC50 (second compound 0.316 µM) of 56.8 nM and an IC50 (second compound 1 µM) of 81.1 nM. For the same compound, the IC50 (second compound 3.16 µM) was 44.4 nM, the IC50 (second compound 10 µM) was < 9.49 nM and the viability, T/C [1] was 80.6%. The viability, T/C [2] was 77%, the viability, T/C [3] was 51.1% and the viability, T/C [4] was 14.5%. For the same compound, the viability, T/C (second compound 0.1 µM, first compound 0.949 µM) was 7.39%, the viability, T/C (second compound 0.1 µM, first compound 3 µM) was 6.28% and the viability, T/C [5] was 66.5%. For the same compound, the viability, T/C [6] was 65.7%, the viability, T/C [7] was 38% and the viability, T/C [8] was 13.4%. It also gave a viability, T/C (second compound 0.316 µM, first compound 0.949 µM) of 7.92%, a viability, T/C (second compound 0.316 µM, first compound 3 µM) of 4.63% and a viability, T/C [9] of 76.8%. It also gave a viability, T/C [10] of 78.5%, a viability, T/C [11] of 45.1% and a viability, T/C [12] of 12.7%. The viability, T/C (second compound 1 µM, first compound 0.949 µM) was 7.39%, the viability, T/C (second compound 1 µM, first compound 3 µM) was 4.92% and the viability, T/C [13] was 70.2%. It also gave a viability, T/C [14] of 60.4%, a viability, T/C [15] of 30.8% and a viability, T/C [16] of 13.6%. For the same compound, the viability, T/C (second compound 3.16 µM, first compound 0.949 µM) was 7.86%, the viability, T/C (second compound 3.16 µM, first compound 3 µM) was 4.46% and the viability, T/C [17] was 35.3%. It also gave a viability, T/C [18] of 34.8%, a viability, T/C [19] of 17.4% and a viability, T/C [20] of 9.23%. The viability, T/C (second compound 10 µM, first compound 0.949 µM) was 5.77% and the viability, T/C (second compound 10 µM, first compound 3 µM) was 3.55%.
